Measured values from patent US5120831A, “Metal-peptide compositions” (ProCyte Corporation, priority 1989, dated 1992).
“Also recorded” adds a separate entry of the source.

Key:
[1] = system: hair growth; test: Stimulation of hair growth in shaved mice by subdermal/intradermal injection; format: in vivo; settings: for significant acceleration of hair growth within, following the injection: Example 12: 500 and 1000 micrograms per mouse; for significant acceleration of hair growth within, following injection: injected once; for hair growth (photograph of injected mice): visual, injection sites versus surrounding shaved areas; for % POS. RESPONSE: hair growth at both injection sites = positive
Description: Increasing doses of glycyl-L-histidyl-L-lysyl-L-valyl-L-phenylalanyl-L-valine:copper(II) in aqueous solution was infiltrated under the skin in two locations. Mice are examined daily for signs of hair growth in the shaved area and at the injection sites. […] Hair growth at both injection sites is considered a positive response.
Mice were shaved and injected in two locations with an aqueous solution of glycyl-L-histidyl-L-lysine octyl ester:metal ion (GHL octyl:metal ion) at a ratio of peptide to metal ion of 2:1. A dose of 500 micrograms was injected per mouse.
Hair growth at both injection sites is considered a positive response.
Mice were shaved and injected in two locations with an aqueous solution of L-lysyl-L-histidyl-glycine octyl ester:copper(II) (LHG Octyl:Cu) and L-lysyl-L-histidyl-glycyl-L-L-valyl-L-phenylalanyl-L-valine:Cu (LGHVFV:Cu) at a ratio of peptide to metal ion of 2:1, and at a dose of 500 and 1000 micrograms per mouse. Hair growth at both injection sites is considered a positive response.
Mice were shaved and injected intradermally in two locations with various doses of glycyl-L-(3-methyl)-histidyl-L-lysyl-glycyl-L-tryptophan:copper(II). […] Hair growth at both injection sites is considered a positive response.
Mice were shaved and injected once with glycyl-L-histidyl-L-lysine n-octyl ester:copper(II) at a dose of 500 micrograms per mouse.
A group of ten mice were shaved and injected once with glycyl-L-histidyl-L-lysine decyl ester:copper(II) at a dose of 500 micrograms per mouse.
A group of 10 mice were shaved and injected once with glycyl-L-histidyl-L-lysine palmityl ester:copper(II) at a dose of 500 micrograms per mose.

[2] = system: hair follicles and subcutaneous fat layer; test: Histological evaluation of skin biopsies through the area of accelerated hair growth; format: in vivo, mice; settings: for hair follicles in histological sections / subcutaneous fat layer in histological sections: skin biopsy through the site of injection / area of accelerated hair growth
Description: Moreover, the surrounding skin contains telogen state follicles resting in the dermal layer, and a gradation of effect is observed as you move closer to the injection site. […] FIG. 4 is a photograph which illustrates the histological section from a mouse injection with glycyl-L-histidyl-L-lysyl-L-valyl-L-phenylalanyl-L-valine:copper(II). The area of injection is on the right side of the photograph. A decrease in hair follicle density and the subcutaneous fat layer is observed at increasing distance from the injection site.
It is known that the thickness of this fat layer is directly associated with hair growth. This increase in subcutaneous fat is shown by taking a biopsy sample at day 21 through the area and sectioning for histology slides. […] The injected area is on the right with the adjacent uninjected area on the left of the photograph.
A group of ten mice were shaved and injected once with glycyl-L-histidyl-L-lysine decyl ester:copper(II) at a dose of 500 micrograms per mouse. […]

[3] = system: hair growth; test: Stimulation of hair growth in shaved mice by daily topical application; format: in vivo; settings: treated daily; 1% (w/w) in Nonocynol-9 5% / Unibase Cream 94%; peptide to metal ion 2:1
Description: Hair growth at the treated site is considered a positive response.

[4] = two locations, peptide to metal ion 2:1
[5] = dose 0.5 mg, two locations, peptide to metal ion 2:1
[6] = dose 1.0 mg, two locations, peptide to metal ion 2:1
[7] = Exp. 1, dose 500 mg, intradermally in two locations

In the case of “L-lysyl-L-histidyl-glycine octyl ester:copper(II) [LHG-Octyl:Cu]”, the “significant acceleration of hair growth within, following the injection” value [1, 4] is reported as 2-3 weeks, the “POSITIVE RESPONSE (No. Positive/Total No.)” value [1, 5] is reported as 8/8 and the “POSITIVE RESPONSE, percent” value [1, 5] is reported as 100%. For the same substance, the “POSITIVE RESPONSE (No. Positive/Total No.)” value [1, 6] was 5/5 and the “POSITIVE RESPONSE, percent” value [1, 6] was 100%.

“L-lysyl-L-histidyl-glycyl-L-valyl-L-phenylalanyl-L-valine:copper(II) [LHGVFV:Cu]” was tested, and the “significant acceleration of hair growth within, following the injection” value [1, 4] was 2-3 weeks, the “POSITIVE RESPONSE (No. Positive/Total No.)” value [1, 5] was 9/10 and the “POSITIVE RESPONSE, percent” value [1, 5] was 90%. The “POSITIVE RESPONSE (No. Positive/Total No.)” value [1, 6] was 5/5 and the “POSITIVE RESPONSE, percent” value [1, 6] was 100%.

In the case of “glycyl-L-histidyl-L-lysine decyl ester:copper(II)”, the “significant acceleration of hair growth within, following injection” value (from here on “significant acceleration … following injection”) ([1]; 500 micrograms per mouse) is reported as 2-3 weeks, the “hair growth (photograph of injected mice)” value [1] is reported as “stimulated hair growth” and the “hair shaft units within the subcutaneous fat layer” value ([2]; biopsy of area of accelerated growth, 500 micrograms per mouse, injected once) is reported as “marked proliferation of hair shaft units; also recorded: marked proliferation of hair shafts”. For the same substance, the “hair follicles in histological sections” value [2] was “increased hair growth, fat cell layer and increased hair follicle density”.

“glycyl-L-histidyl-L-lysine octyl ester:copper(II) [GHL Octyl:Cu(II)]” was tested, and the “POSITIVE RESPONSE (No. Positive/Total No.)” value ([1]; 500 micrograms per mouse, two locations, peptide to metal ion 2:1, hair growth at both sites = positive) was 4/4, the “significant acceleration … following injection” value ([1]; 500 micrograms per mouse) was 2-3 weeks and the “increase in the subcutaneous fat layer in the skin near the injection site (measurements)” value ([2]; biopsy at day 21, 500 micrograms per mouse, injected once, versus adjacent uninjected area) was “approximately threefold increase”. The “number and size of the fat cells” value ([2]; biopsy at day 21, injected area versus adjacent uninjected area) was “obvious increase in both the number and size of the fat cells” and the “subcutaneous fat layer in histological sections” value ([2]; listed as glycyl-L-histidyl-L-lysine n-octyl ester:copper(II)) was “significant increase in the thickness of the subcutaneous fat layer”.

With “glycyl-L-histidyl-L-lysine palmityl ester:copper(II)” the “significant acceleration … following injection” value ([1]; 500 micrograms per mouse) was 2-3 weeks and the “hair follicles in histological sections” value [2] was “large number of developing hair follicles within the subcutaneous fat layer”.

For “glycyl-L-histidyl-L-lysyl-L-valyl-L-phenylalanyl-L-valine:copper(II)”, the “diameter of circle of growth” value ([1]; 0.5 mg injection) was “approximately 0.5 cm”, the “% POS. RESPONSE” value ([1]; dose 0.10 mg/inj., injected under the skin in two locations) was 86% and the “% POS. RESPONSE” value ([1]; dose 0.25 mg/inj., two locations) was 89%. For the same substance, the “% POS. RESPONSE” value ([1]; dose 0.50 mg/inj., two locations) was 89%, the “% POS. RESPONSE” value ([1]; dose 1.00 mg/inj., two locations) was 95% and the “active hair growth takes place between” value ([1]; following injection) was 14 to 20 days. The “indications of hair growth seen within” value ([1]; following injection) was ≤ 10 days, the “maximum effect seen by” value ([1]; following injection) was ≤ 28 days and the “stimulated hair growth at and around the injection site by days” value ([1]; increasing doses, two locations, shaved on day 1) was 14 to 21 days. For the same substance, the “hair growth at 25 days from the date of injection (photograph)” value ([1]; single injection site, versus control mouse injected with saline) was “accelerated hair growth”, the “positive response, % of the mice injected” value ([1]; summary of series of experiments of Table 1, no response with saline) was 80-90% and the “hair growth (photograph of injected mice)” value [1] was “accelerated hair growth at two injection sites”. For the same substance, the “mice showing accelerated hair growth in the area of topical application (number)” value [3] was “Four of the five”, the “mice showing accelerated hair growth in the area of topical application (percent)” value [3] was 80% and the “hair follicles in histological sections” value [2] was “anagen state follicles”. The “subcutaneous fat layer in histological sections” value [2] was “thickening of the fat layer”.

In the case of “glycyl-L-(3-methyl)-histidyl-L-lysyl-glycyl-L-tryptophan:copper(II)”, the “hair growth noted within, following the injections” value ([1]; Example 14: various doses, intradermally in two locations) is reported as 2-3 weeks, the “POSITIVE RESPONSE (No. Positive/Total No.)” value [1, 7] is reported as 5/5 and the “POSITIVE RESPONSE, percent” value [1, 7] is reported as 100%. For the same substance, the “POSITIVE RESPONSE, percent” value ([1]; Exp. 2, dose 250 mg, intradermally in two locations) was 100% and the “POSITIVE RESPONSE (No. Positive/Total No.)” value ([1]; Exp. 2, intradermally in two locations) was 5/5.
